Measured values: US20210187013A1, “Methods of Treating and Preventing Cancer by Disrupting the Binding of Copper in the Map Kinase Pathway” (DUKE UNIVERSITY, priority 2012, published 2021)

Experiments:
[1] = biological target: T1, recombinant GST-hErk2 (Homo sapiens, UniProt P28482); test: Erk2 in vitro kinase assay (phosphorylation of MBP); type: biochemical; conditions: increasing amounts of CuSO4; wild-type Erk2
T1 construct: made in house; host or cells: E. coli BL21(DE3)
Description: Human Erk2 and human Mek1 were obtained from Addgene and cloned into pGEX4T3 and pGEX6P1 from GE Life Sciences, respectively. Recombinant GST-human Erk2 (hErk2) and GST-human Mek1 (hMek1) were purified from BL21(DE3) bacteria as previously described. (see Heise, C. J. (2006) Methods 40:209-212; Levin-Salomon, V. et al. (2008) J. Biol. Chem. 283:34500-34510). Specifically, 500 mL of LB was inoculated with BL21(DE3) bacteria transformed with pGEX4T3-hErk2 or pGEX6P1-hMek1 and allowed to grow to an optical density of 0.6 at 600 nm (OD600). GST-hErk2 was induced by IPTG (0.4 mM) at 37° C. for 4 hours, while GST-hMek1 was induced by IPTG (1 mM) for 14 hour at 25° C. before collection by ultracentrifugation. […] and GST-hMek1 pellets were resuspended in 50 mL of 1×PBS-1% Triton X-100 plus a protease inhibitor tablet and sonicated for bacterial lysis. […] The concentration was determined using the Bio-Rad DC protein assay (Bio-Rad, Hercules, United States).
Modified version of Mek1 and Erk2 in vitro kinase assay were performed as described previously. […] Reactions were quenched with 5× Laemmli buffer, and a third of the reaction mixture was analyzed by SDS-PAGE via subsequent Western blotting with phosphospecific antibodies. […] Reactions were quenched with 5× Laemmli buffer, and a third of the reaction mixture was analyzed by SDS-PAGE via Western blotting with phosphospecific antibodies.

[2] = biological target: T2, recombinant Mek1 (Rattus norvegicus, UniProt Q01986); test: Equilibrium dialysis copper binding stoichiometry of recombinant Mek1
T2 construct: GST (N, cleaved yes); made in house; host or cells: E. coli BL21-CodonPlus (DE3)-RIPL
T2 sequence (Q01986 whole entry): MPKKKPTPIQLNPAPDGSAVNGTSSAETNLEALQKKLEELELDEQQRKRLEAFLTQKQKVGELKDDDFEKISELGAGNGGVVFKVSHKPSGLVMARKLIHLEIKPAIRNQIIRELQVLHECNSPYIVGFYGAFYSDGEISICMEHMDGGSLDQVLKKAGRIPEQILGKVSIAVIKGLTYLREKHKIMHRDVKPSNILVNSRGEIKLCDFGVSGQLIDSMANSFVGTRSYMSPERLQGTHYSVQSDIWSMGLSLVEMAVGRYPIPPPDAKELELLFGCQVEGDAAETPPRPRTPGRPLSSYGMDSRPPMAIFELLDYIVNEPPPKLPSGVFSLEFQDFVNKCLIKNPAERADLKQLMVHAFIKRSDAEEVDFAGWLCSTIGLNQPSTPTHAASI
Description: To investigate the nature of copper binding to Mek1, purified recombinant Mek1 was used for in vitro copper binding stoichiometry and binding affinity experiments. In vitro copper-binding experiments were carried out using the rat Mek1 coding sequence, which was PCR amplified using the pCMV-HAMek1 construct and cloned into the pGex6P-1 vector (GE Healthcare Life Sciences, Waukesha, United States). The resulting plasmid, pGex69-1Mek1, was transformed into BL21-CodonPlus (DE3)-RIPL cells from Stratagene. Recombinant, glutathione S-transferase (GST)-tagged Mek1 was purified by affinity chromatography using GSH agarose beads, followed by on-column Pre Scission protease cleavage of the GST tag. Further purification was achieved using MonoQ anion-exchange chromatography that served to remove the majority of the contaminating proteins, including cleaved GST tags that were not retained on the GSH column. […] Protein concentrations were determined by quantitative amino acid analysis with a Beckman 6300 analyzer (Beckman Coulter, Brea, United States) after hydrolysis in 5.7 N HCl at 110° C. in vacuo. Equilibrium dialysis experiments were conducted as described in Horng, Y. C. et al. (2006) J. Biol. Chem. 280:34113-34122. Recombinant Mek1 (2.5 to 10 μM in 20 mM Tris [pH 7.2]) was dialyzed, using a dialysis tube with 10-kDa molecular mass cutoff, against CuCl2 concentrations ranging from 0.25 to 15 μM in 20 mM Tris (pH 7.2)-100 mM NaCl overnight at 4° C. with slow stirring. Copper levels associated with Mek1 and the dialysate were quantified by inductively coupled plasma mass spectroscopy after digestion with 50% HNO3 at 65° C. In specific experiments, Cu^2+ was introduced as a Cu^2+-histidine complex (His complex) to preclude Cu^2+ hydrolysis and precipitation.
However, the inclusion of 0.1 mM EDTA reduced the Cu content to ˜1.5 molar equivalents. Dialysis of Mek1 against 2 μM Cu^2+-4 μM His complex, followed by a subsequent dialysis step in 0.1 mM EDTA, reduced the copper content to approximately 2 molar equivalents. Inclusion of […] when only Cu^2+ was present. […] In a separate series of equilibrium dialysis experiments in which the Cu^2+ content was varied from […] to 0.15 μM, the maximal copper content associated with Mek1 plateaued near ˜2.5 molar equivalent (FIG. 7B). […] Under these same conditions, Cu^2+ binding is observed with albumin, a known Cu^2+-binding protein, but not lysozyme or thyroglobulin.

T1 sequence (P28482 whole entry): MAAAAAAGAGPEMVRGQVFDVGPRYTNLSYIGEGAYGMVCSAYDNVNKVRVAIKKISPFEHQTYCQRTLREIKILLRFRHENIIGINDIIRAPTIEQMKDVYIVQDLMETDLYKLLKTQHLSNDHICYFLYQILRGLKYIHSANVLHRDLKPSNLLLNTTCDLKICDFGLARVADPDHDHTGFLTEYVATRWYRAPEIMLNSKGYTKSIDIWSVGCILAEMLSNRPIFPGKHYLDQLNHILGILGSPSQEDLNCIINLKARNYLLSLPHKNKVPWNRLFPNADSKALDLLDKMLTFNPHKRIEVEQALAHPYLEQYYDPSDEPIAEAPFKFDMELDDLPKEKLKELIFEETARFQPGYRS

SMILES: [Cl][Cu][Cl] [Cu^2+, CuCl2]
- Erk2 phosphorylation of MBP [1]: no effect
- bound copper content of Mek1 ([2]; dialysis against 2 μM Cu2+-4 μM His complex, then dialysis in 0.1 mM EDTA): approximately 2 molar equivalents
- bound copper content of Mek1 ([2]; dialysis against 2 μM Cu2+, as-isolated ratio ~0.5): ~2.5 molar equivalents
- bound copper content of Mek1 ([2]; dialysis with inclusion of 0.1 mM EDTA): ~1.5 molar equivalents
- bound copper content of Mek1 ([2]; only Cu2+ present (comparison with Zn(II) and Fe(II) inclusion)): 2.6
- maximal copper content associated with Mek1 (plateau) ([2]; separate dialysis series, Cu2+ content varied from 0.11 to 0.15 μM): ~2.5 molar equivalent
